Tested on: 636577-100-R-J1-PDC complex spheroid viability
Assay: Anticancer human tumor 636577-100-R-J1-PDC patient-derived endometrial adenocarcinoma cell line growth inhibition [GQUAD]
Settings: for IC50: curve of first compound; for viability, T/C: stronger effect = lower value
Summary of the method: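 Multi-cell-type spheroids of tumor cells with HUVEC and mesenchymal stem cells, treated with drug combinations. Concentrations descend in half-log steps from near clinical Cmax, or from 10 microM where Cmax is unknown; viability read-out.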
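Note: viability read after seven days of drug exposure.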
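Throughout, for viability, T/C: luminescence signal used as a proxy for viable cells; 100% = DMSO vehicle control wells.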

Nc1ccn(C2OC(CO)C(O)C2(F)F)c(=O)n1 (configuration not stated) + Cc1cnc(CNC(=O)c2c(=O)c3ccc(N4CCCN(C)CC4)nc3n3c2sc2ccccc23)cn1
IC50 (second compound 0.0316 µM): < 31.6 nM | IC50 (second compound 0.1 µM): < 31.6 nM | IC50 (second compound 0.316 µM): < 31.6 nM | IC50 (second compound 1 µM): < 31.6 nM | IC50 (second compound 3.16 µM): < 31.6 nM | IC50 (second compound 10 µM): < 31.6 nM | viability, T/C (second compound 0.0316 µM, first compound 0.0316 µM): 15.9% | viability, T/C (second compound 0.0316 µM, first compound 0.1 µM): 13.3% | viability, T/C (second compound 0.0316 µM, first compound 0.316 µM): 15% | viability, T/C (second compound 0.0316 µM, first compound 1 µM): 12.4% | viability, T/C (second compound 0.0316 µM, first compound 3.16 µM): 13.6% | viability, T/C (second compound 0.0316 µM, first compound 10 µM): 12.1% | viability, T/C (second compound 0.1 µM, first compound 0.0316 µM): 17.9% | viability, T/C (second compound 0.1 µM, first compound 0.1 µM): 13.8% | viability, T/C (second compound 0.1 µM, first compound 0.316 µM): 16.3% | viability, T/C (second compound 0.1 µM, first compound 1 µM): 13.3% | viability, T/C (second compound 0.1 µM, first compound 3.16 µM): 16.2% | viability, T/C (second compound 0.1 µM, first compound 10 µM): 14.6% | viability, T/C (second compound 0.316 µM, first compound 0.0316 µM): 17.6% | viability, T/C (second compound 0.316 µM, first compound 0.1 µM): 15.1% | viability, T/C (second compound 0.316 µM, first compound 0.316 µM): 16.5% | viability, T/C (second compound 0.316 µM, first compound 1 µM): 15.2% | viability, T/C (second compound 0.316 µM, first compound 3.16 µM): 16.3% | viability, T/C (second compound 0.316 µM, first compound 10 µM): 13.9% | viability, T/C (second compound 1 µM, first compound 0.0316 µM): 14.7% | viability, T/C (second compound 1 µM, first compound 0.1 µM): 14.8% | viability, T/C (second compound 1 µM, first compound 0.316 µM): 16.6% | viability, T/C (second compound 1 µM, first compound 1 µM): 17.5% | viability, T/C (second compound 1 µM, first compound 3.16 µM): 16.6% | viability, T/C (second compound 1 µM, first compound 10 µM): 15.3% | viability, T/C (second compound 3.16 µM, first compound 0.0316 µM): 15.4% | viability, T/C (second compound 3.16 µM, first compound 0.1 µM): 16.5% | viability, T/C (second compound 3.16 µM, first compound 0.316 µM): 17.9% | viability, T/C (second compound 3.16 µM, first compound 1 µM): 17.7% | viability, T/C (second compound 3.16 µM, first compound 3.16 µM): 17.6% | viability, T/C (second compound 3.16 µM, first compound 10 µM): 12.7% | viability, T/C (second compound 10 µM, first compound 0.0316 µM): 18.2% | viability, T/C (second compound 10 µM, first compound 0.1 µM): 13.8% | viability, T/C (second compound 10 µM, first compound 0.316 µM): 18.1% | viability, T/C (second compound 10 µM, first compound 1 µM): 16.4% | viability, T/C (second compound 10 µM, first compound 3.16 µM): 16.3% | viability, T/C (second compound 10 µM, first compound 10 µM): 13.5%

From PubChem BioAssay AID2060504 (Molecular Pharmacology Branch, DTP, NCI, 2025)
